The values that follow are results of earlier work, collected in patent publication US20070122482A1, “Method for preparing modified release pharmaceutical compositions” (priority 2003, published 2007).

The conditions of series [1]: for Solubility in water: Table 1, Poorly-Soluble Drug Candidates; for Solubility In Water: Table 2, Poorly-Soluble Drugs with Low Bioavailability.
For series [2] the following is noted: Table 2.

Structures can show the parent of a compound that is named as a salt.

Take `CN1CCN(C2=Nc3cc(Cl)ccc3Nc3ccccc32)CC1` [Clozapine]: the Solubility in water entry in series [1] is “Slightly”.

`CC(C)(C)c1ccc(C(O)CCCN2CCC(C(O)(c3ccccc3)c3ccccc3)CC2)cc1` (centres unmarked) [Terfenadine]: the Solubility in water result in series [1] is reported as “Slightly”.

On to `NC(=O)N1c2ccccc2C=Cc2ccccc21` [Carbamazepine], for which the Solubility in water entry in series [1] is “Insoluble”.

For `CO[C@]12C[C@@H](COC(=O)c3cncc(Br)c3)CN(C)[C@@H]1Cc1cn(C)c3cccc2c13` [Nicergoline], the Solubility in water entry in series [1] is “Insoluble”.

With `CN1CCCC(n2nc(Cc3ccc(Cl)cc3)c3ccccc3c2=O)CC1` (centres unmarked) [Azelastine], the Solubility in water result in series [1] was “Insoluble”.

Consider `O=[N+]([O-])O[C@H]1CO[C@H]2[C@@H]1OC[C@H]2O[N+](=O)[O-]` [Isosorbide dinitrate], for which, in series [1], the Solubility in water entry is “Sparingly” and the “Solubility In Water” value is “Sparingly soluble”.

Take `C=CCC1(CC(C)C)C(=O)NC(=O)NC1=O` [Butalbital]: the Solubility in water result in series [1] was “Insoluble”.

As for `CC(C(=O)O)c1ccc(-c2ccccc2)c(F)c1` (centres unmarked) [Flurbiprofen], the Solubility in water entry in series [1] is on record as “Slightly”.

In the case of `CC[C@H](C)C(=O)O[C@H]1C[C@@H](C)C=C2C=C[C@H](C)[C@H](CC[C@@H]3C[C@@H](O)CC(=O)O3)[C@H]21` [Lovastatin], in series [1], the Solubility in water entry is “Insoluble” and the “Solubility In Water” value is given as “Insoluble”.

In the case of `C[C@@](Cc1ccc(O)c(O)c1)(NN)C(=O)O` [Carbidopa], the Solubility in water entry in series [1] was “Slightly”.

Regarding `CC1=C(/C=C/C(C)=C/C=C/C(C)=C\C(=O)O)C(C)(C)CCC1` [Isotretinoin], the Solubility in water entry in series [1] is listed as “Insoluble”.

In the case of `Cc1c(OCC(F)(F)F)ccnc1C[S+]([O-])c1nc2ccccc2[nH]1` (centres unmarked) [Lansoprazole], the Solubility in water entry in series [1] was “Insoluble”.

For the compound `CN1CCC[C@@H]1CCO[C@](C)(c1ccccc1)c1ccc(Cl)cc1` [Clemastine fumarate], the Bioavailability result in series [2] is listed as “Low (˜39%)”. In series [1], the “Solubility In Water” value was “Slightly soluble”.

On to `COc1ccc2[nH]c([S+]([O-])Cc3ncc(C)c(OC)c3C)nc2c1` (centres unmarked) [Omeprazole], for which, in series [1], the Solubility in water entry is “Slightly”.

Regarding `CC(C)(C)NC(=O)[C@H]1CC[C@H]2[C@@H]3CC[C@H]4NC(=O)C=C[C@]4(C)[C@H]3CC[C@]12C` [Finasteride], the Solubility in water result in series [1] was “Insoluble”.

In the case of `OCCN(CCO)c1nc(N2CCCCC2)c2nc(N(CCO)CCO)nc(N3CCCCC3)c2n1` [Dipyridamole], in series [1], the Solubility in water result is reported as “Slightly”.

On to `CCc1cccc2c3c([nH]c12)C(CC)(CC(=O)O)OCC3` (centres unmarked) [Etodolac], for which the Solubility in water result in series [1] is on record as “Insoluble”.

For the compound `CO/N=C(\C(=O)N[C@@H]1C(=O)N2C(C(=O)O)=C(COC(C)=O)CS[C@H]12)c1csc(N)n1` [Cefotaxime], in series [1], the Solubility in water result is on record as “Sparingly”.

In the case of `CCCC1O[C@@H]2C[C@H]3[C@@H]4CCC5=CC(=O)C=C[C@]5(C)[C@H]4[C@@H](O)C[C@]3(C)[C@]2(C(=O)CO)O1` (some centres unmarked) [Budesonide], the Bioavailability result in series [2] is “Low (˜15%)”. Further, in series [1], the Solubility in water entry was “Sparingly” and the “Solubility In Water” value is recorded as “Sparingly soluble”.

As for `CC1CC(OC(=O)C(O)c2ccccc2)CC(C)(C)C1` (centres unmarked) [Cyclandelate], in series [2], the “Bioavailability (in words)” value is on record as “Low”. The “Solubility In Water” value in series [1] is given as “Insoluble”.

As for `CC(=O)S[C@@H]1CC2=CC(=O)CC[C@]2(C)[C@H]2CC[C@@]3(C)[C@@H](CC[C@@]34CCC(=O)O4)[C@H]12` [Spironolactone], in series [1], the “Solubility In Water” value is listed as “Insoluble”.

For `CCOC(=O)C1=C(COCCN)NC(C)=C(C(=O)OC)C1c1ccccc1Cl` (centres unmarked) [Amlodipine], the Solubility in water entry in series [1] is reported as “Slightly”.

For the compound `OC(Cn1cncn1)(Cn1cncn1)c1ccc(F)cc1F` [Fluconazole], in series [1], the Solubility in water entry is on record as “Slightly”.

`C[C@@H]1C[C@H]2[C@@H]3CCC4=CC(=O)C=C[C@]4(C)[C@@]3(Cl)[C@@H](O)C[C@]2(C)[C@@]1(O)C(=O)CCl` [Mometasone]: the Solubility in water result in series [1] is given as “Insoluble”.

As for `CN[C@H]1CC[C@@H](c2ccc(Cl)c(Cl)c2)c2ccccc21` [Sertraline], in series [1], the Solubility in water entry is “Slightly” and the “Solubility In Water” value was “Slightly soluble”.

On to `Cc1cccc(Nc2ccccc2C(=O)O)c1C` [Mefenamic acid], for which the Solubility in water result in series [1] was “Slightly”.

As for `C#C[C@]1(O)CC[C@H]2[C@@H]3CCC4=Cc5oncc5C[C@]4(C)[C@H]3CC[C@@]21C` [Danazol], in series [2], the “Bioavailability (in words)” value is listed as “Low”.

In the case of `COC(=O)C1=C(C)NC(C)=C(C(=O)OC(C)C)C1c1cccc2nonc12` (centres unmarked) [Isradipine], in series [1], the Solubility in water entry is given as “Insoluble” and the “Solubility In Water” value is listed as “Insoluble”.

For `CCCCCc1cc(O)c2c(c1)OC(C)(C)[C@@H]1CCC(C)=C[C@@H]21` [Dronabinol], the “Solubility In Water” value in series [1] is given as “Insoluble”.

For the compound `CN1C(C(=O)Nc2ccccn2)=C(O)c2ccccc2S1(=O)=O` [Piroxicam], the Solubility in water result in series [1] is on record as “Sparingly”.

As to `C[C@]12CC[C@H]3[C@@H](CCC4=CC(=O)CC[C@@]43C)[C@@H]1CC[C@@H]2O` [Testosterone], the “Bioavailability (in words)” value in series [2] is listed as “Low”. Further, the “Solubility In Water” value in series [1] was “Insoluble”.

With `CCn1cc(C(=O)O)c(=O)c2cc(F)c(N3CCNCC3)cc21` [Norfloxacin], in series [1], the Solubility in water entry is “Slightly” and the “Solubility In Water” value was “Slightly soluble”.

Consider `CCOC(=O)[C@H](CCc1ccccc1)N[C@@H](C)C(=O)N1Cc2ccccc2C[C@H]1C(=O)O` [Quinapril], for which the Solubility in water result in series [1] is “Insoluble”.

As to `CCOC(=O)[C@H](CCc1ccccc1)N[C@@H](C)C(=O)N1[C@H](C(=O)O)C[C@@H]2CCC[C@@H]21` [Ramipril], the Solubility in water entry in series [1] was “Insoluble”.

Consider `Cc1ncc2n1-c1ccc(Cl)cc1C(c1ccccc1F)=NC2` [Midazolam], for which, in series [1], the Solubility in water entry was “Insoluble”.

For `O=C1NC(=O)C(c2ccccc2)(c2ccccc2)N1` [Phenytoin], the Solubility in water result in series [1] is recorded as “Insoluble”.

With `OCCN1CCN(CCCN2c3ccccc3Sc3ccc(C(F)(F)F)cc32)CC1` [Fluphenazine], the “Solubility In Water” value in series [1] is given as “Insoluble”.

Regarding `CC(C)Cc1ccc(C(C)C(=O)O)cc1` (centres unmarked) [Ibuprofen], the Solubility in water entry in series [1] is reported as “Insoluble”.

On to `CCOC(=O)C1=C(C)NC(C)=C(C(=O)OC)C1c1cccc(Cl)c1Cl` (centres unmarked) [Felodipine], for which, in series [1], the Solubility in water entry is on record as “Insoluble” and the “Solubility In Water” value is reported as “Insoluble”.

In the case of `OCCN1CCN(CCCN2c3ccccc3Sc3ccc(Cl)cc32)CC1` [Perphenazine], in series [2], the “Bioavailability (in words)” value is listed as “Low”.

`COCCCC/C(=N\OCCN)c1ccc(C(F)(F)F)cc1` [Fluvoxamine]: the Solubility in water result in series [1] is “Sparingly”.

Take `CN(C/C=C/C#CC(C)(C)C)Cc1cccc2ccccc12` [Terbinafine]: in series [1], the Solubility in water entry is listed as “Slightly”.

As for `COc1cc2nc(N3CCN(C(=O)C4COc5ccccc5O4)CC3)nc(N)c2cc1OC` (centres unmarked) [Doxazosin], the Solubility in water entry in series [1] is given as “Slightly”.

For the compound `CC(CCc1ccc(O)cc1)NCCc1ccc(O)c(O)c1` (centres unmarked) [Dobutamine], in series [1], the Solubility in water entry was “Sparingly”.

As to `CC(=O)O[C@H]1C(=O)[C@@]2(C)[C@H]([C@H](OC(=O)c3ccccc3)[C@]3(O)C[C@H](OC(=O)[C@H](O)[C@@H](NC(=O)c4ccccc4)c4ccccc4)C(C)=C1C3(C)C)[C@]1(OC(C)=O)CO[C@@H]1C[C@@H]2O` [Paclitaxel], the Solubility in water entry in series [1] is “Insoluble”.

Regarding `CCCC(CCC)C(=O)O` [Divalproex], the Solubility in water entry in series [1] is on record as “Slightly”.

For the compound `Nc1nnc(-c2cccc(Cl)c2Cl)c(N)n1` [Lamotrigine], the Solubility in water result in series [1] is “Slightly”.

Consider `CCOC(=O)[C@H](CCc1ccccc1)N[C@@H](C)C(=O)N1CCC[C@H]1C(=O)O` [Enalapril], for which the Solubility in water entry in series [1] is recorded as “Sparingly”.

On to `CC(C)(C)NC(=O)[C@@H]1C[C@@H]2CCCC[C@@H]2CN1C[C@@H](O)[C@H](Cc1ccccc1)NC(=O)[C@H](CC(N)=O)NC(=O)c1ccc2ccccc2n1` [Saquinavir], for which the Solubility in water entry in series [1] is reported as “Practically insoluble”.

Take `Cc1ccc(-c2nc3ccc(C)cn3c2CC(=O)N(C)C)cc1` [Zolpidem]: the Solubility in water result in series [1] is “Sparingly”.

For `OC(CCN1CCCCC1)(c1ccccc1)C1CC2C=CC1C2` (centres unmarked) [Biperiden], the “Solubility In Water” value in series [1] is on record as “Sparingly soluble”.

As to `Nc1ccc(O)c(C(=O)O)c1` [Mesalamine], the Bioavailability entry in series [2] is “Low (˜20%)”.

For `O=C(O)Cc1ccccc1Nc1c(Cl)cccc1Cl` [Diclofenac sodium], the Solubility in water result in series [1] is listed as “Sparingly”.

Take `COc1ccc2cc(CCC(C)=O)ccc2c1` [Nabumetone]: in series [1], the Solubility in water result is on record as “Insoluble” and the “Solubility In Water” value is on record as “Insoluble”.

Take `Cc1nnc2n1-c1ccc(Cl)cc1C(c1ccccc1)=NC2` [Alprazolam]: the Solubility in water result in series [1] is “Insoluble”.

As for `COc1cc(N)c(Cl)cc1C(=O)NC1CCN(CCCOc2ccc(F)cc2)CC1OC` (centres unmarked) [Cisapride], in series [1], the Solubility in water result is on record as “Insoluble” and the “Solubility In Water” value is “Insoluble”.

Turning to `COc1ccc(Cl)cc1C(=O)NCCc1ccc(S(=O)(=O)NC(=O)NC2CCCCC2)cc1` [Glyburide], the Solubility in water entry in series [1] is on record as “Sparingly”.

For the compound `NC(N)=Nc1nc(CSCCC(N)=NS(N)(=O)=O)cs1` [Famotidine], in series [1], the Solubility in water result is listed as “Slightly” and the “Solubility In Water” value is recorded as “Slightly soluble”.

Consider `Cn1cnc([N+](=O)[O-])c1Sc1ncnc2nc[nH]c12` [Azathioprine], for which the Solubility in water result in series [1] is “Insoluble”.

On to `COc1cc([C@@H]2c3cc4c(cc3[C@@H](O[C@@H]3O[C@@H]5CO[C@@H](C)O[C@H]5[C@H](O)[C@H]3O)[C@H]3COC(=O)[C@H]23)OCO4)cc(OC)c1O` [Etoposide], for which the Solubility in water result in series [1] is reported as “Very Slightly”.

For `CC(=O)N1CCN(c2ccc(OCC3COC(Cn4ccnc4)(c4ccc(Cl)cc4Cl)O3)cc2)CC1` (centres unmarked) [Ketoconazole], the Solubility in water result in series [1] is recorded as “Insoluble”.

With `CC[C@H]1OC(=O)[C@H](C)[C@@H](O[C@H]2C[C@@](C)(OC)[C@@H](O)[C@H](C)O2)[C@H](C)[C@@H](O[C@@H]2O[C@H](C)C[C@H](N(C)C)[C@H]2O)[C@](C)(OC)C[C@@H](C)C(=O)[C@H](C)[C@@H](O)[C@]1(C)O` [Clarithromycin], the Solubility in water result in series [1] is listed as “Insoluble”.

With Cholestyramine, the Solubility in water entry in series [1] is “Insoluble”.
